{"source": "the supplement of paper PMC10307832", "data": [{"compound": "Cc1cc([C@@H](C)Nc2ccccc2C(=O)O)c2nc(N3CCOCC3)cc(=O)n2c1 [AZD6482]", "assay": "relative viability (nuclei count vs DMSO), 5 days (fraction); higher = more cells survive", "conditions": "0.08 µM", "summary_of_the_method": "(§1)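 Viability was defined as treated-well nuclei divided by vehicle-well nuclei, with the median taken over replicate plates. Cells from lung cancer lines sat overnight at 37 °C in 1536-well plates, received five √10-spaced library-drug doses by pinning on vehicle-anchored plates, and grew 5 days without medium change before one-step fixation, permeabilisation and Hoechst staining, 4× imaging and MetaXpress nuclear counts. Only plates with control CV under 25% and at least one doubling were kept.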", "values": [{"cell line": "NCI-H1793", "relative viability": 0.774}, {"cell line": "PC-14", "relative viability": 0.953}, {"cell line": "EKVX", "relative viability": 0.813}, {"cell line": "LC-2-ad", "relative viability": 0.982}, {"cell line": "NCI-H1563", "relative viability": 0.829}, {"cell line": "NCI-H1944", "relative viability": 0.92}, {"cell line": "NCI-H1975", "relative viability": 0.853}, {"cell line": "RERF-LC-KJ", "relative viability": 0.875}, {"cell line": "ABC-1", "relative viability": 0.953}, {"cell line": "NCI-H358", "relative viability": 0.856}, {"cell line": "NCI-H650", "relative viability": 1.07}, {"cell line": "PC-3 [JPC-3]", "relative viability": 0.899}]}, {"compound": "Cc1cc([C@@H](C)Nc2ccccc2C(=O)O)c2nc(N3CCOCC3)cc(=O)n2c1 [AZD6482]", "assay": "relative viability (nuclei count vs DMSO), 5 days (fraction); higher = more cells survive", "conditions": "0.253 µM", "summary_of_the_method": "as §1", "values": [{"cell line": "NCI-H1299", "relative viability": 1.07}, {"cell line": "NCI-H647", "relative viability": 0.564}, {"cell line": "CAL-12T", "relative viability": 0.979}, {"cell line": "NCI-H1651", "relative viability": 0.932}, {"cell line": "EPLC-272H", "relative viability": 0.71}, {"cell line": "NCI-H2228", "relative viability": 0.965}, {"cell line": "NCI-H1792", "relative viability": 0.758}, {"cell line": "NCI-H1355", "relative viability": 0.852}, {"cell line": "NCI-H3122", "relative viability": 1.02}, {"cell line": "NCI-H1437", "relative viability": 0.972}, {"cell line": "NCI-H1755", "relative viability": 0.953}, {"cell line": "NCI-H2023", "relative viability": 0.881}, {"cell line": "HCC-15", "relative viability": 0.962}, {"cell line": "NCI-H1793", "relative viability": 0.5}, {"cell line": "PC-14", "relative viability": 0.972}, {"cell line": "EKVX", "relative viability": 0.819}, {"cell line": "LC-2-ad", "relative viability": 0.891}, {"cell line": "NCI-H1563", "relative viability": 0.852}, {"cell line": "NCI-H1944", "relative viability": 0.836}, {"cell line": "NCI-H1975", "relative viability": 0.84}, {"cell line": "RERF-LC-KJ", "relative viability": 0.888}, {"cell line": "ABC-1", "relative viability": 0.897}, {"cell line": "NCI-H358", "relative viability": 0.86}, {"cell line": "PC-3 [JPC-3]", "relative viability": 1.06}]}, {"compound": "Cc1cc([C@@H](C)Nc2ccccc2C(=O)O)c2nc(N3CCOCC3)cc(=O)n2c1 [AZD6482]", "assay": "relative viability (nuclei count vs DMSO), 5 days (fraction); higher = more cells survive", "conditions": "0.8 µM", "summary_of_the_method": "as §1", "values": [{"cell line": "NCI-H1299", "relative viability": 1.14}, {"cell line": "NCI-H647", "relative viability": 0.859}, {"cell line": "CAL-12T", "relative viability": 1.1}, {"cell line": "NCI-H1651", "relative viability": 0.93}, {"cell line": "EPLC-272H", "relative viability": 0.888}, {"cell line": "NCI-H2228", "relative viability": 1.17}, {"cell line": "NCI-H1792", "relative viability": 0.878}, {"cell line": "NCI-H1355", "relative viability": 1.01}, {"cell line": "NCI-H3122", "relative viability": 1.01}, {"cell line": "NCI-H1437", "relative viability": 1.03}, {"cell line": "NCI-H1755", "relative viability": 1}, {"cell line": "NCI-H2023", "relative viability": 0.909}, {"cell line": "HCC-15", "relative viability": 1.04}, {"cell line": "NCI-H1793", "relative viability": 0.756}, {"cell line": "PC-14", "relative viability": 1.12}, {"cell line": "EKVX", "relative viability": 0.832}, {"cell line": "LC-2-ad", "relative viability": 1.07}, {"cell line": "NCI-H1563", "relative viability": 0.906}, {"cell line": "NCI-H1944", "relative viability": 0.946}, {"cell line": "NCI-H1975", "relative viability": 0.939}, {"cell line": "RERF-LC-KJ", "relative viability": 0.784}, {"cell line": "ABC-1", "relative viability": 0.97}, {"cell line": "NCI-H358", "relative viability": 0.92}, {"cell line": "NCI-H650", "relative viability": 0.92}, {"cell line": "PC-3 [JPC-3]", "relative viability": 1.08}]}, {"compound": "Cc1cc([C@@H](C)Nc2ccccc2C(=O)O)c2nc(N3CCOCC3)cc(=O)n2c1 [AZD6482]", "assay": "relative viability (nuclei count vs DMSO), 5 days (fraction); higher = more cells survive", "conditions": "2.53 µM", "summary_of_the_method": "as §1", "values": [{"cell line": "NCI-H1299", "relative viability": 0.914}, {"cell line": "NCI-H647", "relative viability": 0.513}, {"cell line": "CAL-12T", "relative viability": 0.731}, {"cell line": "NCI-H1651", "relative viability": 0.814}, {"cell line": "EPLC-272H", "relative viability": 0.535}, {"cell line": "NCI-H2228", "relative viability": 0.775}, {"cell line": "NCI-H1792", "relative viability": 0.412}, {"cell line": "NCI-H1355", "relative viability": 0.733}, {"cell line": "NCI-H3122", "relative viability": 0.756}, {"cell line": "NCI-H1437", "relative viability": 0.847}, {"cell line": "NCI-H1755", "relative viability": 0.756}, {"cell line": "NCI-H2023", "relative viability": 0.567}, {"cell line": "HCC-15", "relative viability": 0.857}, {"cell line": "NCI-H1793", "relative viability": 0.386}, {"cell line": "PC-14", "relative viability": 0.849}, {"cell line": "EKVX", "relative viability": 0.549}, {"cell line": "LC-2-ad", "relative viability": 0.658}, {"cell line": "NCI-H1563", "relative viability": 0.763}, {"cell line": "NCI-H1944", "relative viability": 0.685}, {"cell line": "NCI-H1975", "relative viability": 0.652}, {"cell line": "RERF-LC-KJ", "relative viability": 0.878}, {"cell line": "ABC-1", "relative viability": 0.849}, {"cell line": "NCI-H358", "relative viability": 0.468}, {"cell line": "NCI-H650", "relative viability": 0.653}, {"cell line": "PC-3 [JPC-3]", "relative viability": 0.814}]}, {"compound": "Cc1cc([C@@H](C)Nc2ccccc2C(=O)O)c2nc(N3CCOCC3)cc(=O)n2c1 [AZD6482]", "assay": "relative viability (nuclei count vs DMSO), 5 days (fraction); higher = more cells survive", "conditions": "8 µM", "summary_of_the_method": "as §1", "values": [{"cell line": "NCI-H1299", "relative viability": 1.02}, {"cell line": "NCI-H647", "relative viability": 0.646}, {"cell line": "CAL-12T", "relative viability": 0.839}, {"cell line": "NCI-H1651", "relative viability": 0.815}, {"cell line": "EPLC-272H", "relative viability": 0.596}, {"cell line": "NCI-H2228", "relative viability": 0.901}, {"cell line": "NCI-H1792", "relative viability": 0.496}, {"cell line": "NCI-H1355", "relative viability": 0.777}, {"cell line": "NCI-H3122", "relative viability": 0.915}, {"cell line": "NCI-H1437", "relative viability": 0.726}, {"cell line": "NCI-H1755", "relative viability": 0.785}, {"cell line": "NCI-H2023", "relative viability": 0.662}, {"cell line": "HCC-15", "relative viability": 0.945}, {"cell line": "NCI-H1793", "relative viability": 0.499}, {"cell line": "PC-14", "relative viability": 0.979}, {"cell line": "EKVX", "relative viability": 0.654}, {"cell line": "LC-2-ad", "relative viability": 0.693}, {"cell line": "NCI-H1563", "relative viability": 0.722}, {"cell line": "NCI-H1944", "relative viability": 0.735}, {"cell line": "NCI-H1975", "relative viability": 0.573}, {"cell line": "RERF-LC-KJ", "relative viability": 0.763}, {"cell line": "ABC-1", "relative viability": 0.713}, {"cell line": "NCI-H358", "relative viability": 0.489}, {"cell line": "NCI-H650", "relative viability": 0.685}, {"cell line": "PC-3 [JPC-3]", "relative viability": 0.985}]}]}
